Reference: patent US7399869B2, “Fibroblast activation protein inhibitor compounds and methods” (Genentech, Inc., priority 2005, dated 2008)
Non-standard residues stand in square brackets, D forms with d. Residues, ends and D or L forms follow the SMILES beside them. ξ: configuration not given here. *: point of attachment. AFC = O=c1cc(C(F)(F)F)c2ccc(N*)cc2o1; AMC = Cc1cc(=O)oc2cc(N*)ccc12; Cbz = O=C(OCc1ccccc1)*; ξP = O=C(O)C1CCCN1

Experiments:
Assay type in all cases: biochemical
FAP [1] = target: T1, FAP (Homo sapiens, UniProt Q12884); experiment: Relative cleavage rates of coumarin (AMCC) dipeptide substrates by FAP; parameters: FAP (amino acids 38-760); FLAG (N); made in house; host or cells: 293 cells (secreted, purified from serum-free conditioned media); settings: for relative cleavage rate by FAP: N-blocked Gly-Pro-AMCC substrates 6, normalized to N-unblocked Gly-Pro-AMCC, FAP 37 nM
T1 sequence (Q12884 38-760): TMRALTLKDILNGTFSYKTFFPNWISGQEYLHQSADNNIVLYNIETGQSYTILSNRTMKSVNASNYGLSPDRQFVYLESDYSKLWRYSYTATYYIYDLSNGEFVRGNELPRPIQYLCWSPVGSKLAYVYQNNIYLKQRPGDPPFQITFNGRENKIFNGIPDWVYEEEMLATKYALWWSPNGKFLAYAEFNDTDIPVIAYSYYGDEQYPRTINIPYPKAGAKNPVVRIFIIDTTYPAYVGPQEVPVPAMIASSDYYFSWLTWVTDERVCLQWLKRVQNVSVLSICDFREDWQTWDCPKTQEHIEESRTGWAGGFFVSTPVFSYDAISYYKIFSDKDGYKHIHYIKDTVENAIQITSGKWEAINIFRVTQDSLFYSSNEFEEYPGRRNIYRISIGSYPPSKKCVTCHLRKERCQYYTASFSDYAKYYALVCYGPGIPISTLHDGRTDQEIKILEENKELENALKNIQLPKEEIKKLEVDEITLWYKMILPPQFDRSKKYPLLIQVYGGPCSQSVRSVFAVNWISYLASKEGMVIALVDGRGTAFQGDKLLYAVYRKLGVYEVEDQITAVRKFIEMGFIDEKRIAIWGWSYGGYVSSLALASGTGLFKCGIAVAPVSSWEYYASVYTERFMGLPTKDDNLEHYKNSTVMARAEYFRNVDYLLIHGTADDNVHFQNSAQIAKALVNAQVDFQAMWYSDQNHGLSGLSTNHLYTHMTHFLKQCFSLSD
Method: (§1) The relative cleavage rates of a variety of N-blocked, C-terminal coumarin (AMCC) Gly-Pro dipeptide substrates 6 were measured. The rates were normalized to N-unblocked Gly-Pro-AMCC for FAP and DPP-4.
(§2) To examine whether FAP could cleave other N-substituted-Gly-Pro-based substrates, N-methyl-, formyl-, succinyl-, benzyloxycarbonyl-(Z-) and biotinyl-Gly-Pro-AMCC substrates 6 were synthesized and reacted with FAP (37 nM) and DPP-4 (6.8 nM).
(§3) Amino-terminus P2 was varied with the L-amino acids: alanine, aspartic acid, glutamic acid, phenylalanine, glycine, histidine, isoleucine, lysine, leucine, methionine, asparagine, proline, glutamine, arginine, serine, threonine, valine, tryptophan, and tyrosine (from left). AMCC=2-(7-amino-4-methyl-2-oxo-2H-chromen-3-yl)acetamide. For both enzymes, the amino acid adjacent in the model dipeptide substrate had little effect where the amino-terminus was unblocked. Hydrolysis rates of other P2-Pro-AMCC substrates by FAP and DPP-4 relative to Gly-Pro-AMCC include the following in Table 6:
(§4) Protease Assays—Protease activity was monitored continuously using a SpectraMax M2 microplate reader (Molecular Devices Corp., Sunnyvale Calif.) in the kinetic mode. Assays were conducted at 23° C. in 50 mM Tris (pH 7.4), 100 mM NaCl, 1 mM EDTA. The excitation/emission wavelengths for the different fluorogenic substrates were 360/460 nm (AMC), 400/505 nm (AFC), 340/425 nm (MNA), 340/510 nm (EDANS), and 337/425 nm (Abs). Standard curves of the appropriate fluorescent product versus concentration were used to convert relative fluorescence units to nmol of product produced. Substrates in the X-Pro-AMC library were used in rate assays at 5 μM final concentration. […] The kinetic parameters were calculated from Michaelis-Menten plots (V0 versus [S]) with nonlinear regression analysis using GraphPad software. kcat values were calculated under the assumption that each protease was 100% active.

DPP-4 [2] = target: T2, DPP-4 (Homo sapiens, UniProt P27487); experiment: Relative cleavage rates of coumarin (AMCC) dipeptide substrates by DPP-4; parameters: DPP-4 (amino acids 39-766); FLAG (N); made in house; host or cells: 293 cells (secreted, purified from serum-free conditioned media); settings: for relative cleavage rate by DPP-4: N-blocked Gly-Pro-AMCC substrates 6, normalized to N-unblocked Gly-Pro-AMCC; for relative cleavage rate by DPP-4 / cleavage of N-substituted-Gly-Pro-AMCC substrates by DPP-4 (in words): DPP-4 6.8 nM; for cleavage of N-substituted-Gly-Pro-AMCC substrates by DPP-4 (in words): substrate concentrations up to 1 mM
T2 sequence (P27487 39-766): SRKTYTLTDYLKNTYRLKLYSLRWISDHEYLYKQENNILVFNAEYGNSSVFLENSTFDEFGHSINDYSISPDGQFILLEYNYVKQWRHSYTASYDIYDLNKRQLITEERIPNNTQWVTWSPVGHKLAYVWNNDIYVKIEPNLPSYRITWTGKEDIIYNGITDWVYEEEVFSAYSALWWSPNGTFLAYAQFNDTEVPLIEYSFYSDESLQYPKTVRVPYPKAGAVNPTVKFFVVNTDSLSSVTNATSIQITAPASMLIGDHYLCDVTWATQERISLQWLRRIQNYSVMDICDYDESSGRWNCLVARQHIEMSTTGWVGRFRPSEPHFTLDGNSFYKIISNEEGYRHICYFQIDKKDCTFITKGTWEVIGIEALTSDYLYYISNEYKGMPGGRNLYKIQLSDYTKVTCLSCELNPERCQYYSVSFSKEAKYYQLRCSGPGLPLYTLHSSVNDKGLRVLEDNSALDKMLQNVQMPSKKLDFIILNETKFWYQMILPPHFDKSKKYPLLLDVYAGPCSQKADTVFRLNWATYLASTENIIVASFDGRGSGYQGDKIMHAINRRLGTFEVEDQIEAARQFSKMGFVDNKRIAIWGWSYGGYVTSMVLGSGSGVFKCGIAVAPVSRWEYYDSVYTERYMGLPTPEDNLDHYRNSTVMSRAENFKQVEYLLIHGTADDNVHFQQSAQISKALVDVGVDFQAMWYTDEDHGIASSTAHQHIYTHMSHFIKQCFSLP
Method: as §1, §2, §3, §4

FAP [3] = target: T1, FAP; experiment: Hydrolysis of C-terminal coumarin dipeptide substrates by FAP (kinetic constants); parameters: FAP (amino acids 38-760); FLAG (N); made in house; host or cells: 293 cells (secreted, purified from serum-free conditioned media); settings: for Km / Kcat: pH 7.4, NC = no cleavage up to 1 mM substrate
Method: (§5) The relative cleavage rates by FAP and several dipeptidases of N-blocked (8) and unblocked (7) Gly-Pro dipeptide substrates were measured.
(§6) The cleavage (hydrolysis) rates of various C-terminal coumarin dipeptide substrates 7-16 by FAP and DPP-4 were measured (Tables 4 and 5). The amino-terminus of the substrates was unblocked and the amino acids were varied in Table 4. The amino-terminus of the substrates was blocked and the amino acids were varied in Table 5. To extend the results obtained with the dipeptide substrate library, kinetic parameters were determined for cleavage of the unblocked dipeptide substrates by FAP (Table 4). The catalytic efficiency (kcat/Km) for substrate cleavage was greatest with Ile-Pro-AFC, followed by Ala-Pro-, Gly-Pro- and Phe-Pro-AFC, consistent with the dipeptide substrate library results (FIG. 5). […] Kinetic constants for cleavage of Ala-Pro-AFC and Gly-Pro-AFC by DPP-4 were determined (Table 4). The catalytic efficiency for Ala-Pro-AFC hydrolysis was greater than that for Gly-Pro-AFC, and consistent with the dipeptide library.
as §4
(§7) When saturating amounts of substrate could not be achieved, catalytic efficiencies (kcat/Km) were determined under pseudo-first order conditions ([S]<<the estimated Km) and fit to the following equation: Ln[St/S0]=−kobst, where St is the concentration of substrate remaining at time t, S0 is the initial substrate concentration and kobs is the apparent first order substrate cleavage constant equal to (kcat/Km) times ET, the total enzyme concentration (Copeland, R. (2000) Enzymes, A Practical Introduction to Structure, Mechanism, and Data Analysis, 2nd Ed., John Wiley and Sons, Inc, New York). The linear relationship of Ln[St/S0] versus time allows calculation of kcat/Km by dividing the slope of the plot by ET.

DPP-4 [4] = target: T2, DPP-4; experiment: Hydrolysis of C-terminal coumarin dipeptide substrates by DPP-4 (kinetic constants); parameters: DPP-4 (amino acids 39-766); FLAG (N); made in house; host or cells: 293 cells (secreted, purified from serum-free conditioned media)
Method: as §5, §6, §4, §7

DPP-4 [5] = target: T2, DPP-4; experiment: Inhibition of DPP-4 by N-blocked boroPro compounds (progress curves); parameters: DPP-4 (amino acids 39-766); FLAG (N); made in house; host or cells: 293 cells (secreted, purified from serum-free conditioned media); settings: cleavage of substrate L-Ala-Pro-AFC
Method: The steady states of product formation in the absence (V0) and presence of inhibitor (Vi) were used to calculate apparent inhibition constants (Kiapp) by plotting V0/Vi−1 against inhibitor concentration.
Briefly, proteases were added to a reaction mixture containing inhibitor and substrate (Ac-Ala-AMC for APH, Z-Gly-Pro-AMC for POP, and Ala-Pro-AFC for all others) in assay buffer at 23° C. Protease activity was followed continuously as described above to monitor time-dependent inhibition. Data were plotted as V0/Vi−1 versus [I], where V0 is the rate if substrate hydrolysis in the absence of inhibitor, Vi is the steady state rate of substrate hydrolysis in the presence of inhibitor and [I] is the concentration of Ac-Gly-BoroPro.
KI values for inhibition of proteases by 5 were determined using the method of progress curves. Briefly, proteases (10-100 nM) were added to a reaction mixture containing inhibitor 5 (0-10 μM) and substrate AP-AFC in assay buffer at 23° C. […] Data were plotted as V0/Vi−1 versus [I], where V0 is the rate if substrate hydrolysis in the absence of inhibitor, Vi is the steady state rate of substrate hydrolysis in the presence of inhibitor and [I] is the concentration of 5. […] Ki, the true equilibrium inhibition constant was determined according to the following relationship: Ki=Kobs/(1+[S]/Km), where [S] is the concentration of substrate used in the assay and Km is the Michaelis constant for substrate cleavage.

[6] = FAP, substrates with unblocked N-termini, 23° C. in 50 mM Tris-HCl, 100 mM NaCl, 1 mM EDTA
[7] = FAP, substrates with unblocked N-termini, 23° C.
[8] = DPP-4, substrates with unblocked N-termini, 23° C., pH 7.4
[9] = P2-Pro-AMCC substrates, hydrolysis rates normalized to Gly-Pro-AMCC
[10] = FAP, substrates with blocked N-termini, 23° C.

relative cleavage rate by FAP (FAP [1]) | relative cleavage rate by DPP-4 (DPP-4 [2]) | cleavage of N-substituted-Gly-Pro-AMCC substrates by DPP-4 (in words) (DPP-4 [2]) | Compound | Km (FAP [3]; [6]) | Kcat (FAP [3]; [7]) | further results
– | – | comparable to Gly-Pro-AMCC | N-methyl-Gly-Pro-AMCC | – | – | –
0% | 0% | no cleavage | succinyl-Gly-Pro-AMCC [HO2CCH2CH2C(═O)] | – | – | –

Further lines, the compound ahead of its results:

Compound | relative cleavage rate by FAP (FAP [1]) | relative cleavage rate by DPP-4 (DPP-4 [2]) | cleavage of N-substituted-Gly-Pro-AMCC substrates by DPP-4 (in words) (DPP-4 [2]) | Km (FAP [3]; [6]) | Kcat (FAP [3]; [7]) | further results
O=C(O)c1ccc2c(c1)C(=O)OC21c2ccc(O)cc2Oc2cc(O)ccc21 [5-carboxyfluorescein] | 36% | 0% | – | – | – | –
C[C@H](N)C(=O)N1CCC[C@H]1C(=O)Nc1ccc2c(C(F)(F)F)cc(=O)oc2c1 [Ala-Pro-AFC 9, Ala-Pro-7-amino-4-trifluoromethylcoumarin] (H-Ala-Pro-{AFC}) | – | – | – | 244 ± 28 µM | 14.2 ± 0.9 s⁻¹ | Kcat (DPP-4 [4]; [8]): 45.6 ± 1.7 s⁻¹; Km (DPP-4 [4]; [8]): 16 ± 3 µM
Cc1c(CC(N)=O)c(=O)oc2cc(NC(=O)[C@@H]3CCCN3C(=O)[C@@H](C)N)ccc12 [D-Ala] | – | – | – | – | – | Relative Hydrolysis rate by FAP (FAP [1]; [9]): 0; Relative Hydrolysis rate by DPP-4 (DPP-4 [2]; [9]): 2
Cc1cc(=O)oc2cc(NC(=O)[C@H](C)NC(=O)CN)ccc12 [Gly-Ala-AMC 11, Gly-Ala-AMC] (H-Gly-Ala-{AMC}) | – | – | – | – | – | cleavage by FAP (in words) (FAP [3]): not cleaved
CC[C@H](C)[C@H](N)C(=O)N1CCC[C@H]1C(=O)Nc1ccc2c(C(F)(F)F)cc(=O)oc2c1 [Ile-Pro-AFC 13, Ile-Pro-AFC] (H-Ile-Pro-{AFC}) | – | – | – | 106 ± 6 µM | 6.9 ± 0.3 s⁻¹ | Km, fold lower than the other P2-Pro-AFC substrates (FAP [3]; FAP): ~2.5 fold
Cc1cc(=O)oc2cc(NC(=O)C(C)NC(=O)C(N)CCCCN)ccc12 (stereo not drawn) [Lys-Ala-AMC 12, Lys-Ala-AMC] (H-Lys-Ala-{AMC}; configuration not given here) | – | – | – | 189 ± 20 µM | 0.01 ± 0.001 s⁻¹ | catalytic efficiency, fold less than for cleavage of P2-Pro-based peptides (FAP [3]; FAP): 400-1000 fold
CC(=O)N[C@H](C)C(=O)N1CCCC1B(O)O (some centres unmarked) [N-Ac-(D)Ala-boroPro] | – | – | – | – | – | Ki (DPP-4 [5]): > 40 µM
NC(Cc1ccccc1)C(=O)N1CCCC1C(=O)Nc1ccc2c(C(F)(F)F)cc(=O)oc2c1 (stereo not drawn) [Phe-Pro-AFC 10, Phe-Pro-AFC] (H-Phe-Pro-{AFC}; configuration not given here) | – | – | – | 245 ± 22 µM | 1.1 ± 0.1 s⁻¹ | –
Cc1cc(=O)oc2cc(NC(=O)C3CCCN3C(=O)CNC(=O)OCc3ccccc3)ccc12 (stereo not drawn) [Z-Gly-Pro-AMC 14, Benzyloxycarbonyl (Z)-Gly-Pro-7-amino-4-methylcoumarin] (Cbz-Gly-[ξP]-{AMC}) | – | – | – | – | – | catalytic efficiency, fold lower than that for Gly-Pro-AFC (FAP [3]; FAP): about 3 fold; Kcat (FAP [3]; [10]): <30 s⁻¹; Km (FAP [3]; [10]): > 4 µM; DPP-4 activity against substrate (in words) (DPP-4 [4]): little activity
biotinyl-Gly-Pro-AMCC | 40% | 0% | no cleavage | – | – | –
formyl-Gly-Pro-AMCC [HC(═O)] | 130% | 7% | low rate of hydrolysis | – | – | –
